According to patent US20240067632A1, “WEE1 Degrading Compounds and Uses Thereof” (Bristol-Myers Squibb Company, priority 2022, published 2024):

What was measured:
WEE1 = target: T1, WEE1 (Homo sapiens, UniProt P30291+Q96SW2); experiment: WEE1-ePL degradation assay (LentiX-WEE1-ePL-GSPT1-ND cells, InCELL Hunter luminescence, 4 h); type: cell-based; settings: 293T-LentiX WEE1-ePL cells; for 293T-LentiX WEE1-ePL Degradation 4 hr (Ymin): lower limit of the fit (0 = luciferase inhibitor, Ymax = DMSO control); for DC50: read-out: 293T-LentiX WEE1-ePL Degradation 4 hr (EC50)
T1 construct: C-terminal ePL-tagged (DiscoverX, Fremont, CA) full-length WEE1 expression construct; expressed in transfected cells; host or cells: LentiX-HEK293T (Invitrogen), lentiviral transduction; co-expressing GSPT1-GN (G576N, lacking the first 158 amino acids)
Description: To generate LentiX-WEE1-ePL-GSPT1-ND cells for the WEE1 degradation assay, LentiX-HEK293T (Invitrogen) were transduced by lentivirus with a C-terminal ePL-tagged (DiscoverX, Fremont, CA) full-length WEE1 expression construct. […] Cells were selected and maintained in complete DMEM media (DMEM, 10% Heat Inactivated FBS, 400 μg/mL Geneticin, and 1 μg/mL puromycin at 37 C and 5% CO2). Cells were passaged every 3-4 days by reseeding 1×10^6 cells in a T150 flask.
Cells were dispensed into 384-well white plates (Corning #3570, NY) that were pre-spotted with compounds using an acoustic dispenser (Echo acoustic transfer system, Beckman Coulter Life Sciences, Carlsbad, CA) as a 10-point dose-response curve with a 3-fold dilution starting at either 1 uM or 10 uM and including a DMSO control. Twenty-five microliters of media containing 2500 cells for LentiX-oeWEE1-ePL was dispensed per well. Assay plates were incubated at 37° C. with 5% CO2 for four hours (WEE1) After incubation, 25 μL of the InCELL Hunter™ Detection Reagent Working Solution (DiscoverX, Fremont, CA) was added to each well and incubated at room temperature for 30 minutes protected from light. After 30 minutes, luminescence was read on a PHERAstar luminometer (Cary, NC).
To determine the half-maximal effective concentration (EC50) values for WEE1-ePL degradation, a four parameter logistic model was used: (Sigmoidal Dose-Response Model) (FIT=(A+((B−A)/1+((C/x)^D)))) where C is the inflection point (EC50), D is the Hill slope, and A and B are the low and high limits of the fit respectively). The lower limit of the fit (value A) is referred to as Ymin. […] The maximum limit constraint, Ymax, is similarly derived using DMSO control. The curves were processed and evaluated using Activity Base (IDBS, Alameda, CA).

MKN45 cells = experiment: MKN45 cell proliferation assay (Cell-Titer-Glo, 120 h); type: cell-based; settings: for EC50: Homo sapiens, MKN-45, 120 h, Cell-Titer-Glo, growth inhibition, read-out: MKN45 Cell Prolif. 120 hr (EC50); for MKN45 Cell Prolif. 120 hr (Ymin-Obs): minimal percent of DMSO control observed in the concentrations tested
Description: MKN45 cells were obtained from Celgene internal cell banks and cultured in RPMI complete media (RPMI-1640, 1× Penicillin/Streptomycin, 1× glutamine, 1× Sodium Pyruvate, Non-essential Amino Acids, 10% Fetal Bovine serum, all component from Thermo-Fisher). Compounds were dispensed into 384-well plates using an HP DE300 compound printer in triplicate with 8 compounds on each plate. For each compound, a 10-point dose response was printed at half-log dilutions starting at either 1 uM or 10 uM. The DMSO concentration was kept constant for a final assay concentration of 0.1% per well assuming 50 ul final media volume. Compound plates were sealed and frozen at −20 C until use.
For each assay batch, compound plates were thawed and allowed to reach room temperature, and cells were seeded at 400 cells per well in 50 ul complete RPMI media. After 120 hours of incubation at 37 C and 5% CO2, cells were lysed by addition of 25 μL of Cell-Titer-Glo Reagent (Promega Corporation, Madison, WI), as per manufacturer's instructions, protected from light, shaken for 45 minutes, and total luminescence read by a Perkin Elmer Envision plate reader. Total luminescence signal is linearly correlated with cell number remaining in the well.
Luminescence data was processed per plate by subtracting reagent-only “blank” well luminescence from all measured values and calculating a percent of DMSO control value for each treatment well. Then, to determine the half-maximal effective concentration (EC50) values for cell growth inhibition, a four parameter logistic model was fit to the data for each DMSO-normalized compound: Sigmoidal Dose-Response Model: (FIT=(A+((B−A)/1+((C/x)^D)))) where C is the inflection point (EC50), D is the Hill slope, and A and B are the low and high limits of the fit respectively. The lower limit of the fit (value A) is referred to as Ymin-calculated. The minimal percent of DMSO control that is observed in the concentrations tested for each compound is labeled as “Ymin-obs”, and was recorded and reported in the tables. Sigmoidal fit curves were processed and evaluated using Activity Base (IDBS, Alameda, CA).

| 293T-LentiX WEE1-ePL Degradation 4 hr (Ymin) (WEE1) | DC50 (WEE1) [nM] | EC50 (MKN45 cells) [nM] | Compound | MKN45 Cell Prolif. 120 hr (Ymin-Obs) (MKN45 cells) |
| --- | --- | --- | --- | --- |
| 38 | 3.19 | 3.83 | O=C1CCC(N2Cc3cc(O[C@H]4CCN(Cc5ccc6nc(N7C[C@@H]8C9CCC(O9)[C@@H]8C7)ccc6c5)C4)ccc3C2=O)C(=O)N1 (stereo partly shown) | 10.93 |
| 35 | 9.25 | 10.5 | O=C1CCC(N2Cc3cc(O[C@H]4CCN(Cc5ccc6nc(N7C[C@@H]8C9CCC(O9)[C@@H]8C7)ncc6c5)C4)ccc3C2=O)C(=O)N1 (stereo partly shown) | 12.82 |
| 33 | 18 | 13 | O=C1CC[C@H](N2Cc3cc(O[C@H]4CCN(Cc5ccc6nc([C@@H]7CCOC7)ncc6c5)C4)ccc3C2=O)C(=O)N1 | 9.409 |
| 34 | 21.8 | 18.5 | O=C1CCC(N2Cc3cc(O[C@@H]4CCN(Cc5ccc6nc([C@@H]7CCOC7)ncc6c5)C4)ccc3C2=O)C(=O)N1 (relative stereo) [rel-3-(1-oxo-5-{[(3R)-1-({2-[(3S)-oxolan-3-yl]quinazolin-6-yl}methyl)pyrrolidin-3-yl]oxy}-2,3-dihydro-1H-isoindol-2-yl)piperidine-2,6-dione] | 7.06 |
| 50.89 | 83.4 | > 10000 | CC(c1cnc2ccccc2c1)N1CC[C@@H](Oc2ccc3c(c2)CN(C2CCC(=O)NC2=O)C3=O)C1 (stereo in doubt) [rel-3-(1-oxo-5-{[(3R)-1-[1-(quinolin-3-yl)ethyl]pyrrolidin-3-yl]oxy}-2,3-dihydro-1H-isoindol-2-yl)piperidine-2,6-dione] | 76.71 |
| 26.82 | 6.57 | 57 | O=C1CCC(N2Cc3cc(O[C@@H]4CCN(Cc5cnc6ccccc6c5)C4)ccc3C2=O)C(=O)N1 (stereo in doubt) [rel-3-(1-oxo-5-{[(3R)-1-[(quinolin-3-yl)methyl]pyrrolidin-3-yl]oxy}-2,3-dihydro-1H-isoindol-2-yl)piperidine-2,6-dione] | 11.39 |
| 30.205 | 32.9 | 621 | O=C1CCC(N2C(=O)c3ccc(O[C@H]4CCN(Cc5cnc6ccccc6c5)C4)cc3C2=O)C(=O)N1 (stereo partly drawn) [2-(2,6-dioxopiperidin-3-yl)-5-{[(3S)-1-[(quinolin-3-yl)methyl]pyrrolidin-3-yl]oxy}-2,3-dihydro-1H-isoindole-1,3-dione] | 15.39 |
| 38.05 | 1230 | 2510 | O=C1CCC(N2C(=O)c3ccc(O[C@H]4CCN(Cc5ccnc6ccccc56)C4)cc3C2=O)C(=O)N1 (stereo partly drawn) [2-(2,6-dioxopiperidin-3-yl)-5-{[(3S)-1-[(quinolin-4-yl)methyl]pyrrolidin-3-yl]oxy}-2,3-dihydro-1H-isoindole-1,3-dione] | 48.18 |
| 30.52 | 79.2 | 2230 | O=C1CCC(N2C(=O)c3ccc(O[C@H]4CCN(Cc5cccc6ncccc56)C4)cc3C2=O)C(=O)N1 (stereo partly drawn) [2-(2,6-dioxopiperidin-3-yl)-5-{[(3S)-1-[(quinolin-5-yl)methyl]pyrrolidin-3-yl]oxy}-2,3-dihydro-1H-isoindole-1,3-dione] | 44.93 |
| 29.65 | 43.4 | 1030 | O=C1CCC(N2C(=O)c3ccc(O[C@H]4CCN(Cc5ccc6ncccc6c5)C4)cc3C2=O)C(=O)N1 (stereo partly drawn) [2-(2,6-dioxopiperidin-3-yl)-5-{[(3S)-1-[(quinolin-6-yl)methyl]pyrrolidin-3-yl]oxy}-2,3-dihydro-1H-isoindole-1,3-dione] | 21.24 |
| 32 | 3.8 | 5.02 | O=C1CCC(N2Cc3cc(O[C@H]4CCN(Cc5ccc6nc([C@H]7C[C@H](O)C7)ccc6c5)C4)ccc3C2=O)C(=O)N1 (stereo partly drawn) [3-(1-oxo-5-{[(3S)-1-({2-[(1r,3r)-3-hydroxycyclobutyl]quinolin-6-yl}methyl)pyrrolidin-3-yl]oxy}-2,3-dihydro-1H-isoindol-2-yl)piperidine-2,6-dione] | 7.85 |
| 33.24 | 1.57 | 2.56 | COC[C@H]1CC[C@H](c2ccc3cc(CN4CC[C@H](Oc5ccc6c(c5)CN(C5CCC(=O)NC5=O)C6=O)C4)ccc3n2)CC1 (stereo partly drawn) [3-(1-oxo-5-{[(3S)-1-({2-[(1r,4r)-4-(methoxymethyl)cyclohexyl]quinolin-6-yl}methyl)pyrrolidin-3-yl]oxy}-2,3-dihydro-1H-isoindol-2-yl)piperidine-2,6-dione] | 14.13 |
| 30 | 4.67 | 2.79 | O=C1CCC(N2Cc3cc(O[C@H]4CCN(Cc5ccc6nc([C@H]7CC[C@H](O)CC7)ccc6c5)C4)ccc3C2=O)C(=O)N1 (stereo partly drawn) [3-(1-oxo-5-{[(3S)-1-({2-[(1r,4r)-4-hydroxycyclohexyl]quinolin-6-yl}methyl)pyrrolidin-3-yl]oxy}-2,3-dihydro-1H-isoindol-2-yl)piperidine-2,6-dione] | 7.3325 |
| 26 | 1.88 | 1.29 | CO[C@H]1CC[C@H](c2ccc3cc(CN4CC[C@H](Oc5ccc6c(c5)CN(C5CCC(=O)NC5=O)C6=O)C4)ccc3n2)CC1 (stereo partly drawn) [3-(1-oxo-5-{[(3S)-1-({2-[(1r,4r)-4-methoxycyclohexyl]quinolin-6-yl}methyl)pyrrolidin-3-yl]oxy}-2,3-dihydro-1H-isoindol-2-yl)piperidine-2,6-dione] | 11.035 |
| 31 | 2.09 | 5.21 | O=C1CCC(N2Cc3cc(O[C@H]4CCN(Cc5ccc6nc([C@H]7C[C@@H](O)C7)ccc6c5)C4)ccc3C2=O)C(=O)N1 (stereo partly drawn) [3-(1-oxo-5-{[(3S)-1-({2-[(1s,3s)-3-hydroxycyclobutyl]quinolin-6-yl}methyl)pyrrolidin-3-yl]oxy}-2,3-dihydro-1H-isoindol-2-yl)piperidine-2,6-dione] | 6.89 |
| 28.9 | 1.22 | 2.66 | COC[C@H]1CC[C@@H](c2ccc3cc(CN4CC[C@H](Oc5ccc6c(c5)CN(C5CCC(=O)NC5=O)C6=O)C4)ccc3n2)CC1 (stereo partly drawn) [3-(1-oxo-5-{[(3S)-1-({2-[(1s,4s)-4-(methoxymethyl)cyclohexyl]quinolin-6-yl}methyl)pyrrolidin-3-yl]oxy}-2,3-dihydro-1H-isoindol-2-yl)piperidine-2,6-dione] | 12.53 |
